From US10857170B1, “Molecules, compositions and methods for modulation of SIRT6” (SirTLab Corporation, priority 2015, dated 2020)

Target: T1, Human recombinant SIRT6 (Homo sapiens, UniProt Q8N6T7)
T1 construct: six-histidine (His6); made in house; host or cells: Escherichia coli BL21
Assay: SIRT6 enzymatic activity assay (fluorogenic de-myristoylation of histone H3 peptide-AMC, trypsin-coupled)
Type: biochemical
Details: for % activity 20 uM: compound 20 uM; for % activity 20 uM / % activity 100 uM / % activity Max. conc. 100 uM: percentage of signal increase relative to control wells; for % activity 100 uM / % activity Max. conc. 100 uM: compound 100 uM; for % activity (20 micromolar only): Table 3, compound 20 micromolar
Experimental: Human recombinant SIRT6 (sequence identifier: CAG33481.1; GI:4814651) was expressed in large scale in Escherichia coli strain BL21 as a six-histidine-tagged protein, after transformation of the expression plasmid pET28-SIRT6. The SIRT6 enzyme was purified from the bacteria culture broth in a two-step strategy. The first purification step was carried out by cation exchange chromatography on a HiTrap CM-Sepharose column (GE Healthcare) using an FPLC system. The second purification step was performed by immobilized metal ion affinity chromatography (IMAC) using a cobalt affinity column (Clontech).
The enzymatic activity assay is carried out in 96 or 384-well microplates using the purified recombinant SIRT6 and a fluorophore-labeled peptide substrate: 7-amino-4-methylcoumarin (AMC) that is quenched through conjugation to the C-terminal end of a Lysin-myristoylated histone H3 peptide. The activity assay procedure requires two steps, both performed in the same microplate. In the first step, the substrate is incubated with the purified SIRT6 protein along with the co-substrate nicotinamide adenine dinucleotide (NAD+). Upon de-myristoylation, the liberated ε-amino group of the lysine becomes a trypsin substrate. Treatment with trypsin in the second step releases the fluorophore resulting in an increase in fluorescence. Fluorescence intensity is measured using a fluorescent plate reader (excitation and emission at 370 nm and 450 nm, respectively). The fluorescence signal is directly proportional to SIRT6 enzymatic activity.
In the primary screening, compounds from a library (ChemDiv Inc.) were tested at a single concentration of 20 micromolar for their potential to modulate SIRT6 enzymatic activity. The assay was carried out in 384-well black well plates and all liquid handling was done using a robotic liquid handler. Purified recombinant SIRT6 (1 micromolar) was pre-incubated with each compound (or DMSO in control wells) for 15 minutes at room temperature. The first stage of the assay was initiated by adding a ‘substrate solution’ containing the myristoylated histone H3 peptide and NAD+(for final concentrations of 25 micromolar and 20 micromolar, respectively). After one hour incubation at 37° C., a Trypsin solution (6 mg/mL) was added for 30 minutes at room temperature. Fluorescence intensity was measured using a fluorescent plate reader (Tecan) with excitation at 370 nm and emission at 450 nm. The effect of each tested compound was evaluated by the change in the fluorescence intensity compared to control wells. […] To validate the primary screening results, each of the primary “hits” was re-tested, first at concentration of 20 micromolar in duplicates and later at a serial dilution ranging from 100 to 0.2 micromolar in triplicates.

T1 sequence (Q8N6T7 whole entry): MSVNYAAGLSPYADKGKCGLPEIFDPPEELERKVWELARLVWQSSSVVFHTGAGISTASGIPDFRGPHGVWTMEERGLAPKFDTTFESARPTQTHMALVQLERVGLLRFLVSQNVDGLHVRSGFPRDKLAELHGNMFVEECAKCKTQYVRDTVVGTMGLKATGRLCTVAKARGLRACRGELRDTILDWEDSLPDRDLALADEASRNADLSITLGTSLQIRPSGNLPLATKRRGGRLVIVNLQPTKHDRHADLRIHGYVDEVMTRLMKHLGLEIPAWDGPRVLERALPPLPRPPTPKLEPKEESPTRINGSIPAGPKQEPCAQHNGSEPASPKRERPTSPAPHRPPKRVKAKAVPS

Row | Structure (SMILES) | % activity 20 uM (Table 2) [%] | % activity 100 uM (Table 2) [%] | % activity (20 micromolar only) [%] | % activity 20 uM (Table 1) [%] | % activity Max. conc. 100 uM (Table 1) [%]
1 | COCCNc1oc2c(c1-c1ccc(C)cc1)c(=O)oc1c(C)cccc12 [compound 30] | 149 | 111 | – | – | –
2 | C=C1Oc2ccc(C)cc2-c2oc(NCCOC)c(-c3ccc(OCC)cc3)c21 [compound 29] | 82 | 226 | – | – | –
3 | O=c1cc(O)c2sc3nc4c(cc3c2[nH]1)CCCCC4 [compound 15] | 37 | 75 | – | – | –
4 | Cc1ccccc1CSc1ncc(Sc2ccccc2)c(C(=O)NCc2ccccc2)n1 [compound 23] | 55 | 65 | – | – | –
5 | C=C(Oc1ccc2cnccc2c1)C1=C(N)c2ccccc2C1 [compound 35] | 154 | 324 | – | – | –
6 | C=S(=C)(c1cc(Cl)ccc1Cl)n1c(/C=C/c2ccc(SC)cc2)nc2ccccc21 [compound 21] | 38 | 36 | – | – | –
7 | CCc1nc(-c2ccccc2)c2cc(Cl)ccc2n1 [compound 1] | 88 | 428 | – | – | –
8 | Cc1cc(NC(=O)CSc2nnc(-c3sc4ncccc4c3N)n2C)ccc1Cl [compound 24] | 77 | 47 | – | – | –
9 | C=C1Oc2cc(C[C@@H]3C[C@H](CO)[C@H](O)[C@H](C)[C@H]3O)ccc2C2=C1CCCC2 [C] | – | – | – | 70 | 195
10 | Cc1ccnc(NC(c2ccc(C)cc2C)c2ccc3cccnc3c2O)c1 (stereo not shown) [compound 6] | 30 | 28 | – | – | –
11 | C=C(CS)Nc1ccc(CCCCC)cc1 [compound 9] | 22 | 48 | – | – | –
12 | CCN1CCCC1CNC(=O)C1CCN(c2cc(C)nc3c(-c4ccc(Cl)cc4)c(C)nn23)CC1 (stereo not shown) [compound 22] | 32 | 29 | – | – | –
13 | Cn1c(-c2ccc3[nH]c(-c4ccc(N)cc4)nc3c2)nc2cc(N)ccc21 [compound 7] | 118 | 162 | – | – | –
14 | CC1=NCC(c2ccc(O)cc2O)=C1c1ccc(Cl)cc1 [compound 18] | 53 | 94 | – | – | –
15 | C=C1Nc2nc(OC(C)=O)c(C)c(C)c2S1 [compound 16] | 40 | 197 | – | – | –
16 | Cc1ccc(NC(=O)c2nnc(-c3ccc(NC(=O)c4cccs4)cc3)s2)cc1 [compound 31] | 29 | 16 | – | – | –
17 | O=C1Nc2ccc(Cl)cc2C(c2ccccc2)C1Nc1ccc(Oc2ccccc2)cc1 (stereo not shown) [compound 13] | 24 | 86 | – | – | –
18 | C=C(Nc1ccc(CC)c(Cl)c1)c1cc(N)cc2cn[nH]c12 [compound 36] | 45 | 56 | – | – | –
19 | Cc1cccc2c1N=C(N(CCCN(C)C)C(=O)CCOc1ccccc1)C2 [B] | – | – | – | 287 | 252
20 | CC[C@H]1O[C@@H](Cc2ccc3c(c2C)CC(=O)C(C)=C3C)[C@H](C)[C@@H](O)[C@H]1C [compound 26] | 21 | 56 | – | – | –
21 | C=C1Cc2c(cccc2CC)C=C1C1=CCC(NC(=O)CCC(=O)NCCCN2CCC(C)CC2)=N1 [compound 37] | 42 | 35 | – | – | –
22 | Cc1nc(-c2cccc(C(F)(F)F)c2)c(N)c(N(C)C2CCN(C)CC2)n1 [compound 60] | 52 | 255 | – | – | –
23 | O=C(NCc1cccc(Cl)c1)c1noc2c1CSc1ccccc1-2 [compound 27] | 59 | 137 | – | – | –
24 | N#Cc1c(N)oc(C2=CC=CC2)c1-c1ccco1 [compound 14] | 28 | 48 | – | – | –
25 | C=C1N(C)C(=O)c2c(nc3n2CC(c2ccc(Br)cc2)=NN3)N1C [compound 11] | 41 | 99 | – | – | –
26 | C=C(CN1C(=C)C(c2nc(-c3ccccc3)no2)=C(C)C=C1C)NC1CCCCC1 [compound 33] | 53 | 221 | – | – | –
27 | Cc1nc2sc(-c3nc4ccccc4[nH]3)c(N)c2c(C)c1Cl [compound 12] | 36 | 59 | – | – | –
28 | C=C(CCOc1ccccc1)N(CCCN(C)C)C1=Nc2c(C)cccc2C1 [A] | – | – | – | 263 | 255
29 | C=C(CN1C(=C)C(c2nc(-c3ccccc3)no2)=C(C)C=C1C)NCCc1ccc(CC)c(CC)c1 [compound 32] | 101 | 73 | – | – | –
30 | Cc1nc(-c2cccc(F)c2)c(N)c(N(C)C2CCN(C)CC2)n1 [compound 61] | 50 | 210 | – | – | –

More lines, now with the values ahead:

Row | % activity 20 uM (Table 2) [%] | % activity 100 uM (Table 2) [%] | % activity (20 micromolar only) [%] | % activity 20 uM (Table 1) [%] | % activity Max. conc. 100 uM (Table 1) [%] | Structure (SMILES)
31 | 63 | 50 | – | – | – | C=C(NCCC)c1ccc(-c2ccc(N3CCCCC3)nc2)cc1 [compound 47]
32 | 89 | 175 | – | – | – | C=C(C)C1Cc2cc(C(F)(F)F)ccc2N2CCCCC12 (stereo not shown) [compound 59]
33 | 28 | 113 | – | – | – | C=C1Cc2cc(C)cc(CC(=O)[C@@H](NS(=C)(=C)c3ccc(C)cc3)[C@H](C)CC)c2C2=C1CCC2 [compound 62]
34 | 38 | 47 | – | – | – | Cc1noc(-c2cccc(OC3CN(C(=O)c4cccc5[nH]ccc45)C3)c2)n1 [compound 58]
35 | 31 | 11 | – | – | – | Cc1ccc(Nc2nc(C)c(C(=O)Nc3cccc(C(C)C)c3)s2)cc1 [compound 54]
36 | – | – | 85 | – | – | CCn1c2ccccc2c2nnc(N3CCN(c4cccc(C(F)(F)F)c4)CC3)nc21 [compound 64]
37 | 69 | 142 | – | – | – | O=C(Nc1ccc2nnc(C3CCC3)n2c1)C1CC1 [compound 52]
38 | 40 | 110 | – | – | – | CCC(=O)Nc1ccc(-c2cc(C(=O)NCCCN3CCCCC3C)c3ccccc3n2)cc1 (stereo not shown) [compound 41]
39 | 32 | 54 | – | – | – | C=C(Nc1ccc(CCC)cc1)C1=C(C)c2c(nc(C)nc2N(C)c2ccc(C(C)C)cc2)C1 [compound 39]
40 | – | – | 38 | – | – | O=C(NCc1ccc2c(c1)CCC2)c1ccc(NC(=O)C2CC2)cc1N1CCCCCC1 [compound 63]
41 | 52 | 52 | – | – | – | C=S(=O)(C1=CC=C(c2ccc(N3CCCCC3)nn2)C1)N1CCCC(C(=O)OCC)C1 (stereo not shown) [compound 38]
42 | 30 | 53 | – | – | – | CCCC1(CO)CCCN1C(=O)c1ccc2cc[nH]c2c1 (stereo not shown) [compound 56]
43 | 62 | 92 | – | – | – | C=C(CC)Nc1ccc(-c2cc(C(=O)NCCCN3CCCCCC3)c3ccccc3n2)cc1 [compound 40]
44 | 96 | 119 | – | – | – | C=C(NCCN1CCN(C)CC1)c1cc(-c2ccc(NC(C)=O)cc2)nc2ccc(C)cc12 [compound 43]
45 | 30 | 51 | – | – | – | O=C(Nc1ccc2nncn2c1)c1cccc(Cl)c1 [compound 50]
46 | 61 | 87 | – | – | – | C=C(CC)Nc1ccc(-c2cc(C(=O)NCCCN3CCCC(C)C3)c3ccccc3n2)cc1 (stereo not shown) [compound 42]
47 | 93 | 75 | – | – | – | O=C(c1ccc(-c2ccc(N3CCCCC3)nc2)cc1)N1CCCC1 [compound 49]
48 | 31 | 37 | – | – | – | COc1cc(NC(=O)c2csc(-c3cn(C)c4ncccc34)n2)cc(OC)c1 [compound 55]
